Earlier results in PMC8448162, “Single- and Multiple-Ascending-Dose Study of the Safety, Tolerability, and Pharmacokinetics of the Polymyxin Derivative SPR206” (Antimicrobial Agents and Chemotherapy, 2021).

What was measured:
kidney [1] = settings: mouse model; cited from earlier work
[2] = test system: bacterial burden in CFU/g; set-up: method as in earlier work; settings: 20 mg/kg, infection models in mice; cited from earlier work
kidney [3] = settings: in vivo; cited from earlier work

Row | Substance | histopathological changes in the kidney (kidney [1]) | change from baseline in Log10 (bacterial burden in CFU/g) [2] [Log10] | incidence of acute kidney injury (kidney [3])
1 | polymyxin B [reference compound] | all animals | −2.8 | –
2 | colistin | – | – | up to 60%
